Assay results from patent US11028067B2, “Heteroarylsulfonyl-substituted pyridines and their use in the treatment of cancer” (Oblique Therapeutics AB, priority 2017, dated 2021).

Assays:
[1] = biological target: recombinant thioredoxin reductase 1 (TrxR1) (Homo sapiens (Human), UniProt Q16881); assay: Inhibition of recombinant TrxR1 (DTNB assay); type: biochemical; settings: 30 nM TrxR1, 250 μM NADPH, 15 minutes incubation, 2 mM DTNB; read-out: TrxR inhibition
Description: (§1) Small molecule inhibition of recombinant thioredoxin reductase 1 (TrxR1) and gluthathione reductase (GR) was examined in 96-well plate format. 30 nM TrxR1 was incubated in the presence of 250 μM NADPH, 0.1 mg/ml BSA, and various concentrations of the compounds (1% DMSO final) in 50 mM Tris (pH 7.5) and 2 mM EDTA buffer for 15 minutes. Following the incubation period, 2 mM DTNB was added to each well and the change in O.D. at 412 nm was followed. Percent activity was determined using DMSO vehicle and no TrxR1 (blank) controls. 2 nM GR was incubated in the presence of 250 μM NADPH, 0.1 mg/ml BSA, and various concentrations of compounds (1% DMSO final) in 50 mM Tris (pH 7.5) and 2 mM EDTA buffer for 15 minutes. Following the incubation period, 1 mM GSSG was added to each well and the change in O.D. at 340 nm was followed. Percent activity was determined using DMSO vehicle and no GR (blank) controls.

MDA-MB-231 cells = assay: Breast cancer cell viability assay (Alamar Blue); type: cell-based; settings: Homo sapiens, 72 hrs, 10% FBS media containing 25 nM selenite
Description: (§2) MDA-MB-231 cells were plated 2000 cells/well in 96-well black optical plates in the presence of 10% FBS media containing 25 nM selenite. The following day cells were treated with various concentrations of compounds (0.1% DMSO final) and incubated for 72 hrs. After the incubation Alamar Blue reagent was added to each well and incubated for additional 3 hrs. Fluorescence was read ex: 530 nm/em: 590 nm, and percent of viability was determined using DMSO vehicle and no cell (blank) controls.

MDA-MB-231 = assay: Cancer cell viability assay (MTT), MDA-MB-231; type: cell-based; settings: 10% FBS media
Description: (§3) Breast cancer and glioblastoma cell lines were plated 4000 cells/well in 96-well plates in the presence of 10% FBS media. The following day cells were treated with various concentrations of example compounds (0.1% DMSO final) and incubated for 72 hrs. After the incubation An MTT assay was performed to access cell viability. Percent of viability was determined using DMSO vehicle and no cell (blank) controls.

FaDu cells = assay: Head and neck cancer cell viability assay (Cell-Quanti Blue); type: cell-based; settings: Homo sapiens, 72 hrs, 10% FBS media containing 25 nM selenite
Description: as §2, with “FaDu” for “MDA-MB-231”, “the compound of Example 1” for “compounds”, “Cell-Quanti” for “Alamar”

U-87 MG = assay: Cancer cell viability assay (MTT), U-87 MG; type: cell-based; settings: 72 hrs, 10% FBS media
Description: as §3

[2] = biological target: gluthathione reductase (GR) (Homo sapiens (Human), UniProt P00390); assay: Inhibition of recombinant GR (GSSG assay); type: biochemical; settings: 2 nM GR, 250 μM NADPH, 15 minutes incubation, 1 mM GSSG
Chain of gluthathione reductase (GR) (P00390 44-522): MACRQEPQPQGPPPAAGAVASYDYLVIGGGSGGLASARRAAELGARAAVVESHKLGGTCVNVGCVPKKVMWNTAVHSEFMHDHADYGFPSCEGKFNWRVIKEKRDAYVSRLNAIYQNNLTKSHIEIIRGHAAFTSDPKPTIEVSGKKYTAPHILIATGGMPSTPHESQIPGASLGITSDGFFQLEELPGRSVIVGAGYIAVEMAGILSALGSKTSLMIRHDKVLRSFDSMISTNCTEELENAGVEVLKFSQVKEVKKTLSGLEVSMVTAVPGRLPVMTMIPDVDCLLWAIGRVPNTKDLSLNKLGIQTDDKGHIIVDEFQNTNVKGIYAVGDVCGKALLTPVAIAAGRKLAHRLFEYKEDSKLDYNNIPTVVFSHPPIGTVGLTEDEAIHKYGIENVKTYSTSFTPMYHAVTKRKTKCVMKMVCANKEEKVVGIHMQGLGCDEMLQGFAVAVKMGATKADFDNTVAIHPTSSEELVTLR
Description: as §1

MDA-MB-468 = assay: Cancer cell viability assay (MTT), MDA-MB-468; type: cell-based; settings: 10% FBS media
Description: as §3

Chain of recombinant thioredoxin reductase 1 (TrxR1) (Q16881 151-649): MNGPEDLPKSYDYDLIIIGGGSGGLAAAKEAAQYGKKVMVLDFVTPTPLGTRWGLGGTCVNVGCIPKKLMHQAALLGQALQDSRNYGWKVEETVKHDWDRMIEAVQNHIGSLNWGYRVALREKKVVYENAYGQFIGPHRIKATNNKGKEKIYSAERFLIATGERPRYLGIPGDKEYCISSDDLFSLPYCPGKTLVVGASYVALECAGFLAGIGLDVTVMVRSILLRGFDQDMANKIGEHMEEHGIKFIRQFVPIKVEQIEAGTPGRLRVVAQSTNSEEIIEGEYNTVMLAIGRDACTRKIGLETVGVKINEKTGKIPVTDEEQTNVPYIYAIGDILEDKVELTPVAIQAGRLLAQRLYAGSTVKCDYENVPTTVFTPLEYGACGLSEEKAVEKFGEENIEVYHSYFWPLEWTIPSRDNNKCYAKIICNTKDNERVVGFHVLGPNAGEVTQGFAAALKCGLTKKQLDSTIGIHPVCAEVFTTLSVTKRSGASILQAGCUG

Compound | IC50 [1] [nM] | IC50 (MDA-MB-231 cells) [nM] | IC50 (MDA-MB-231; Homo sapiens, MDA-MB-231, 72 hrs) [nM] | IC50 (FaDu cells) [nM] | IC50 (U-87 MG; Homo sapiens, U-87 MG) [nM] | IC50 [2] [nM] | IC50 (MDA-MB-468; Homo sapiens, MDA-MB-468, 72 hrs) [nM] | IC50 (MDA-MB-231; 72 hrs) [nM] | IC50 (U-87 MG) [nM] | IC50 (MDA-MB-468; 72 hrs) [nM]
COc1ccc([N+](=O)[O-])c(S(=O)(=O)c2ccccn2)n1 [Example 1, 6-Methoxy-3-nitro-2-(pyridin-2-ylsulfonyl)pyridine] | 26.8 | 3610 | 2970 | 1610 | 8200 | 64200 | 4340 |  |  | 
O=[N+]([O-])c1ccc(Cl)nc1S(=O)(=O)c1ccccn1 [Example 2, 6-Chloro-3-nitro-2-(pyridin-2-ylsulfonyl)pyridine] | 56.9 |  |  | 610 |  | 9890 |  |  |  | 
CN(C)c1ccc([N+](=O)[O-])c(S(=O)(=O)c2ccccn2)n1 [Example 3, 6-Dimethylamino-3-nitro-2-(pyridin-2-ylsulfonyl)pyridine] | 558 |  |  | 2890 |  | > 100000 |  |  |  | 
COc1ccc([N+](=O)[O-])c(S(=O)(=O)c2ccncc2)n1 [Example 4, 6-methoxy-3-nitro-2-(pyridin-4-ylsulfonyl)pyridine] | 0.854 | > 100000 |  |  |  | 11200 |  |  |  | 
COc1ccc([N+](=O)[O-])c(S(=O)(=O)c2ncccn2)n1 [Example 5, 2-((6-methoxy-3-nitropyridin-2-yl)sulfonyl)pyrimidine] | 10.8 | 4540 |  |  |  | > 100000 |  |  |  | 
COc1ccc([N+](=O)[O-])c(S(=O)(=O)c2ncc[nH]2)n1 [Example 6, 2-((1H-imidazol-2-yl)sulfonyl)-6-methoxy-3-nitropyridine] | 3.99 | 10800 |  |  |  | > 100000 |  |  |  | 
COc1ccc([N+](=O)[O-])c(S(=O)(=O)c2nc(C)cs2)n1 [Example 7, 2-((6-methoxy-3-nitropyridin-2-yl)sulfonyl)-4-methylthiazole] | 6.9 | 3090 |  | 45700 |  | > 100000 |  |  |  | 
COc1ccc([N+](=O)[O-])c([S+]([O-])c2ccccn2)n1 (stereo not drawn) [Example 8, 6-Methoxy-3-nitro-2-(pyridin-2-ylsufinyl)-pyridine] | 5.5 |  |  |  |  |  |  | 1020 | 2530 | 960
